{"source": "patent US11896704B2", "about": "“Compounds useful for the treatment and/or care of the skin, hair, nails and/or mucous membranes” (LUBRIZOL ADVANCED MATERIALS, INC., priority 2017, dated 2024)", "assay_type_in_all_cases": "cell-based", "key": {"[1]": {"system": "mitochondrial complex I (NADH dehydrogenase)", "experiment": "Mitochondrial complex I activity in human dermal fibroblasts, colorimetric assay", "details": "HDFa, 48 hours", "experimental": "Inhibition of Mitochondrial Complex I Activity Using an Assay Based on Colorimetric Detection. Human Dermal Fibroblasts from adult (HDFa, Life Technologies) are seeded at a density of 750.000 cells/75 cm^2 flask (one flask per condition) in culture medium M106 with Low Serum Growth Supplement (Life Technologies). Cells are grown during 8 days at 37° C. in 5% CO2 humidified air. Then, medium is removed and cells are treated with scalar dilutions of the peptide […] (PEP-1, H-[SEQ ID. NO. 2]-NH2) at 1, 0.5 and 0.1 mg/ml in culture medium during 48 hours at 37° C. in 5% CO2 humidified air. Non-treated cells incubated in culture medium alone are used as basal conditions. […] After 48 hours of treatment, cells are detached using trypsin and resuspended in 60 ul of Phosphate buffer saline (Sigma). Total protein concentration is measured by a Pierce BCA Protein Assay Kit (BCA Assay, Thermo Scientific) following manufacturer's protocol to adjust the final protein concentration between 700-1000 ug/ml. Briefly, standards and samples are dispensed and Working Reagent is added to the samples. After 30 minutes of incubation at 37° C., absorbance is measured with a microplate reader (Clariostar®, BMG) at 562 nm. Mitochondrial complex I activity is measured with Complex I enzyme activity microplate assay Kit (Abcam) according to the manufacture's protocol. This assay follows the oxidation of NADH to NAD coupled to the reduction of a specific colorimetric dye, leading to an increase in absorbance at 450 nm. In brief, 200 ul of each sample (adjusted to 700-1000 ug/ml of total protein amount) is incubated for 3 hours. After that, wells are washed several times and incubated with Assay Solution provided with the kit (composed by NADH and the specific dye). For the determination of mitochondrial complex I activity, colorimetric increase of Optical Density (OD) at 450 nm in a kinetic reaction along 1 hour is measured with a microplate reader (Clariostar©, BMG). Results are calculated as the rate of increase in OD at 450 nm between two points in the linear zone over time. The percentage of mitochondrial complex I activity relative to basal conditions after the treatment with […] (PEP-1, H-[SEQ ID. NO. 2]-NH2) is represented in Table 9. These values represent the mean for at least three independent assays."}, "[2]": {"system": "Human Dermal Fibroblasts (HDFa)", "experiment": "Mitochondrial membrane potential in HDFa, JC-1 fluorescence assay", "details": "0.5 mg/ml, 16 hours", "experimental": "In Vitro Study of Increasing the Mitochondrial Membrane Potential in Human Dermal Fibroblasts (HDFa) by an Immunofluorescence Assay.\nHuman Dermal Fibroblasts from adult (HDFa, Life Technologies) are seeded at a density of 6,000 cells/well (3 wells per condition) in 96-well plates. Cells are seeded in culture medium M106 with Low Serum Growth Supplement (Life Technologies) during 24 hours at 37° C. in 5% CO2 humidified air. […]. Non-treated cells incubated with medium alone are used as basal conditions.\nAfter 16 hours of treatment, cells are used to quantify mitochondria membrane potential by using JC-1 mitochondrial membrane potential assay kit (Abcam) according to the manufacturer's protocol. Briefly, cells are incubated with a JC-1 working solution prepared with Supplemented Dilution Buffer in the presence of the treatment with the peptide at 0.5 mg/ml at 37° C. 5% CO2 for 30 minutes. […]\nCells are imaged and mitochondrial membrane potential is measured using Operetta® High Content Imaging System (PerkinElmer, Inc). […] Cell number is quantified by using Hoechst 33342 (ThermoFisher Scientific) staining, a cell-permeant nuclear counterstain that emits blue fluorescence at 460 nm when bound to dsDNA and is excited at 350 nm. For each image, intensity fluorescence from energized and depolarized cells is quantified and normalized against the number of nuclei. […]"}, "JARID1A protein (KDM5A)": {"system": "JARID1A protein (KDM5A)", "experiment": "JARID1A protein level in synchronized human keratinocytes (HaCaT), ELISA normalized to total protein", "details": "0.5 mg/ml, 7:30 hours, mean of at least six assays", "experimental": "In Vitro Study of JARID1A Protein Increase Protein Level by the Peptide […] (PEP-1, H-[SEQ ID. NO. 2]-NH2) on Synchronized Human Keratinocytes Using an ELISA Assay Based on Colorimetric Detection. HaCaT cells (human keratinocyte cell line, Deutsches Krebsforschungszentrum) are seeded at a density of 200.000 cells/well (2 wells per condition) in 12-well plates. Cells are seeded in culture medium Dulbecco's Modified Eagle Medium high GlutamaxTM (Fisher Scientific) supplemented with 10% (volume/volume) Fetal Bovine Serum (Cultek). […] Nuclear extracts are assayed to quantify the level of JARID1A protein and total protein concentration. JARID1A protein is quantified using an enzyme linked immunosorbent assay (Human lysine-specific demethylase 5A (KDM5A) (CUSABIO) according to the manufacturer's protocol. In brief, JARID1A protein is detected with the antibodies provided in the kit and quantified by a colorimetric reaction. Absorbance quantification is carried out by using a microplate reader (ClarioStar®, BMG) set to 450 nm and 570 nm. For wavelength correction, readings at 570 nm were subtracted from readings at 450 nm. Total protein concentration of cell lysate is determined by using Pierce BCA Protein Assay Kit (Thermo Scientific). […] After 30 minutes of incubation at 60° C., the change in colour is measured with the absorbance microplate reader (Clariostar®, BMG) at 562 nm. […]"}}, "data": [{"substance": "H-Phe-Trp-Met-Lys-Arg-Lys-Arg-Val-Pro-NH2 (H-FWMKRKRVP-NH2) [PEP-1]", "values": [{"measurement": "Percentage of mitochondrial complex I activity relative to basal condition (%)", "setting": "[1]; 0.1 mg/mL", "result": 83.23, "unit": "%"}, {"measurement": "Percentage of mitochondrial complex I activity relative to basal condition (%)", "setting": "[1]; 0.5 mg/mL", "result": 71.68, "unit": "%"}, {"measurement": "Percentage of mitochondrial complex I activity relative to basal condition (%)", "setting": "[1]; 1 mg/mL", "result": 55.35, "unit": "%"}, {"measurement": "Percentage of MMP relative to basal conditions (%)", "setting": "[2]", "result": 130.98, "unit": "%"}, {"measurement": "Percentage of JARID1A protein relative to basal condition (%)", "setting": "JARID1A protein (KDM5A)", "result": 126.84, "unit": "%"}]}]}
